In patent US12084419B2, “Cell metabolism modulating compounds and uses thereof” (CRESCENTA BIOSCIENCES, priority 2020, dated 2024) one finds inhibition data, which are given here for 28 molecules.

For the experiment, the target named is T1, His6 tagged human recombinant FABP4 (Homo sapiens, UniProt P15090).
T1 construct: purchased Cayman Chemicals 10009549
Put plainly: FABP4 TR-FRET assay: displacement of BODIPY FL C12 fatty acid. The conditions noted are these: triplicates, inhibition of BODIPY FL C12 binding; for inhibition at 1 µM: 1 μM compound; for inhibition at 10 µM: 10 μM compound. The source says:
Activity of compounds with FABP4 was profiled using a Terbium (Tb) based time resolved fluorescence energy transfer (TR-FRET) assay. The assay measures the compound mediated displacement of the fluorescent fatty acid BODIPY FL C12 (Thermo Fisher; catalog number D3822) from His6 tagged human recombinant FABP4 (His6-FABP4; Cayman Chemicals, catalog number 10009549) via recording the energy transfer from TB donor molecule on anti-His6-tag antibody to acceptor BODIPY moiety. Briefly, compounds were prepared at a concentration of 0.362 mM and 0.0362 mM, and BODIPY FL C12 was prepared at 4.2 μM, in DMSO. 1.2 μL of each compound or DMSO (vehicle control) and 1.2 μL of BODIPY FL C12 were added into the wells of a 384-well black polypropylene plate. His6-FABP4 and Tb anti-His6 antibody were prepared in the assay buffer (25 mM Tris/HCl, pH 7.4, 0.4 mg/ml y-globulins, 0.010% NP-40, 1 mM DTT) at a concentration of 83 nM and 49.6 nM, respectively. The protein and antibody solutions were then mixed at a ratio of 34:7 (v/v) and incubated on ice for 30 minutes. The assay was initiated by adding 41 μL of the resulting protein/antibody solution into the wells containing the compounds and BODIPY FL C12. The plate was centrifuged and incubated at room temperature for 10 min. The TR-FRET signals were recorded using an EnVision Multilabel plate reader (PerkinElmer; TB excitation 320 nm, BODIPY FL C12 emission 520 nm; TB emission 615 nm). Relative fluorescence ratio (520 nm*10,000/615 nm) were used to calculate the compound mediated inhibition of BODIPY C12 FL fatty acid binding to FABP4. […] Glucose consumption and FABP4 inhibition is shown below in Table 3 below.

In general, inhibition refers to the drop in the measured response relative to a control, in per cent.

Each structure is given as a SMILES string.

T1 sequence (P15090 whole entry): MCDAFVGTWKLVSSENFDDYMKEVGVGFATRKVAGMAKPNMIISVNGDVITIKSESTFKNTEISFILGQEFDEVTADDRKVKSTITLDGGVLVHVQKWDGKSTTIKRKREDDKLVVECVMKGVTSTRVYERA

Consider `CCCCCCC1CCCc2c(n(Cc3ccnc(F)c3)c3c(C(=O)O)cccc23)C1` (centres unmarked) [5-[(2-fluoropyridin-4-yl)methyl]-7-hexyl-5H,6H,7H,8H,9H,10H-cyclohepta[b]indole-4-carboxylic acid], for which the inhibition at 1 µM stood at 92.8% and the inhibition at 10 µM was 90.4%.

Consider `CCCCCCC1CCCc2c(n(Cc3c(C)noc3C)c3c(C(=O)O)cccc23)C1` (centres unmarked) [5-[(3,5-dimethyl-1,2-oxazol-4-yl)methyl]-7-hexyl-5H,6H,7H,8H,9H,10H-cyclohepta[b]indole-4-carboxylic acid], for which the inhibition at 1 µM is 79.8% and the inhibition at 10 µM is 95.6%.

Regarding `NC(=O)c1cccc(Cn2c3c(c4cccc(C(=O)O)c42)CCCC(CCc2ccccc2)C3)c1` (centres unmarked) [5-[(3-carbamoylphenyl)methyl]-7-(2-phenylethyl)-5H,6H,7H,8H,9H,10H-cyclohepta[b]indole-4-carboxylic acid], the inhibition at 1 µM was 99.1% and the inhibition at 10 µM is 98%.

Turning to `CCC1CCCc2c(n(Cc3cccc(C(N)=O)c3)c3c(C(=O)O)cccc23)C1` (centres unmarked) [5-[(3-carbamoylphenyl)methyl]-7-ethyl-5H,6H,7H,8H,9H,10H-cyclohepta[b]indole-4-carboxylic acid], the inhibition at 1 µM turned out to be 91.8% and the inhibition at 10 µM was 100%.

As for `CCCCCCC1CCCc2c(n(Cc3cccc(C(N)=O)c3)c3c(C(=O)O)cccc23)C1` (centres unmarked) [5-[(3-carbamoylphenyl)methyl]-7-hexyl-5H,6H,7H,8H,9H,10H-cyclohepta[b]indole-4-carboxylic acid], the inhibition at 1 µM came out at 102% and the inhibition at 10 µM was 94.2%.

Regarding `CCCCCCCCC1CCCc2c(n(Cc3cccc(C(N)=O)c3)c3c(C(=O)O)cccc23)C1` (centres unmarked) [5-[(3-carbamoylphenyl)methyl]-7-octyl-5H,6H,7H,8H,9H,10H-cyclohepta[b]indole-4-carboxylic acid], the inhibition at 1 µM stood at 98.1% and the inhibition at 10 µM worked out at 93.6%.

Regarding `CCCCCC1CCCc2c(n(Cc3cccc(C(N)=O)c3)c3c(C(=O)O)cccc23)C1` (centres unmarked) [5-[(3-carbamoylphenyl)methyl]-7-pentyl-5H,6H,7H,8H,9H,10H-cyclohepta[b]indole-4-carboxylic acid], the inhibition at 1 µM turned out to be 91.2% and the inhibition at 10 µM amounted to 93.3%.

With `CCCC1CCCc2c(n(Cc3cccc(C(N)=O)c3)c3c(C(=O)O)cccc23)C1` (centres unmarked) [5-[(3-carbamoylphenyl)methyl]-7-propyl-5H,6H,7H,8H,9H,10H-cyclohepta[b]indole-4-carboxylic acid], the inhibition at 1 µM came out at 85.1% and the inhibition at 10 µM is 91.4%.

Regarding `CCC1CCCCc2c1c1cccc(C(=O)O)c1n2Cc1cccc(C(N)=O)c1` (centres unmarked) [5-[(3-carbamoylphenyl)methyl]-10-ethyl-5H,6H,7H,8H,9H,10H-cyclohepta[b]indole-4-carboxylic acid], the inhibition at 1 µM was 86.4% and the inhibition at 10 µM is 98%.

As for `CCCCCC1CCCCc2c1c1cccc(C(=O)O)c1n2Cc1cccc(C(N)=O)c1` (centres unmarked) [5-[(3-carbamoylphenyl)methyl]-10-pentyl-5H,6H,7H,8H,9H,10H-cyclohepta[b]indole-4-carboxylic acid], the inhibition at 1 µM came out at 81.1% and the inhibition at 10 µM was 96.1%.

Regarding `CCCC1CCCCc2c1c1cccc(C(=O)O)c1n2Cc1cccc(C(N)=O)c1` (centres unmarked) [5-[(3-carbamoylphenyl)methyl]-10-propyl-5H,6H,7H,8H,9H,10H-cyclohepta[b]indole-4-carboxylic acid], the inhibition at 1 µM came to 38.8% and the inhibition at 10 µM worked out at 91.6%.

On to `CCCCCCC1CCCc2c(n(Cc3cccc(C(=O)O)c3)c3c(C(=O)O)cccc23)C1` (centres unmarked) [5-[(3-carboxyphenyl)methyl]-7-hexyl-5H,6H,7H,8H,9H,10H-cyclohepta[b]indole-4-carboxylic acid], for which the inhibition at 1 µM stood at 89.8% and the inhibition at 10 µM is 89.2%.

Consider `CCCCCCC1CCCc2c(n(Cc3cccc(Cl)c3)c3c(C(=O)O)cccc23)C1` (centres unmarked) [5-[(3-chlorophenyl)methyl]-7-hexyl-5H,6H,7H,8H,9H,10H-cyclohepta[b]indole-4-carboxylic acid], for which the inhibition at 1 µM amounted to 103% and the inhibition at 10 µM came out at 45.9%.

Regarding `CCCCCCC1CCCc2c(n(Cc3cccc(C#N)c3F)c3c(C(=O)O)cccc23)C1` (centres unmarked) [5-[(3-cyano-2-fluorophenyl)methyl]-7-hexyl-5H,6H,7H,8H,9H,10H-cyclohepta[b]indole-4-carboxylic acid], the inhibition at 1 µM was determined as 87.9% and the inhibition at 10 µM came out at 95.5%.

Consider `CCCCCCC1CCCc2c(n(Cc3cccc(C#N)c3)c3c(C(=O)O)cc(F)cc23)C1` (centres unmarked) [5-[(3-cyanophenyl)methyl]-2-fluoro-7-hexyl-5H,6H,7H,8H,9H,10H-cyclohepta[b]indole-4-carboxylic acid], for which the inhibition at 1 µM is 87.3% and the inhibition at 10 µM worked out at 93.9%.

For `N#Cc1cccc(Cn2c3c(c4cccc(C(=O)O)c42)CCCC(CCc2ccccc2)C3)c1` (centres unmarked) [5-[(3-cyanophenyl)methyl]-7-(2-phenylethyl)-5H,6H,7H,8H,9H,10H-cyclohepta[b]indole-4-carboxylic acid], the inhibition at 1 µM was 93.1% and the inhibition at 10 µM stood at 94.5%.

Consider `CCC1CCCc2c(n(Cc3cccc(C#N)c3)c3c(C(=O)O)cccc23)C1` (centres unmarked) [5-[(3-cyanophenyl)methyl]-7-ethyl-5H,6H,7H,8H,9H,10H-cyclohepta[b]indole-4-carboxylic acid], for which the inhibition at 1 µM worked out at 90% and the inhibition at 10 µM is 97%.

As for `CCCCCCC1CCCc2c(n(Cc3cccc(C#N)c3)c3c(C(=O)O)cccc23)C1` (centres unmarked) [5-[(3-cyanophenyl)methyl]-7-hexyl-5H,6H,7H,8H,9H,10H-cyclohepta[b]indole-4-carboxylic acid], the inhibition at 1 µM is 94.1% and the inhibition at 10 µM came to 88.7%.

In the case of `CCCCCCCCC1CCCc2c(n(Cc3cccc(C#N)c3)c3c(C(=O)O)cccc23)C1` (centres unmarked) [5-[(3-cyanophenyl)methyl]-7-octyl-5H,6H,7H,8H,9H,10H-cyclohepta[b]indole-4-carboxylic acid], the inhibition at 1 µM came to 94.5% and the inhibition at 10 µM worked out at 93%.

With `CCCCCC1CCCc2c(n(Cc3cccc(C#N)c3)c3c(C(=O)O)cccc23)C1` (centres unmarked) [5-[(3-cyanophenyl)methyl]-7-pentyl-5H,6H,7H,8H,9H,10H-cyclohepta[b]indole-4-carboxylic acid], the inhibition at 1 µM worked out at 100% and the inhibition at 10 µM was found to be 96.1%.

For the molecule `CCC1CCCCc2c1c1cccc(C(=O)O)c1n2Cc1cccc(C#N)c1` (centres unmarked) [5-[(3-cyanophenyl)methyl]-10-ethyl-5H,6H,7H,8H,9H,10H-cyclohepta[b]indole-4-carboxylic acid], the inhibition at 1 µM turned out to be 92.4% and the inhibition at 10 µM was determined as 98.2%.

On to `CCCCCC1CCCCc2c1c1cccc(C(=O)O)c1n2Cc1cccc(C#N)c1` (centres unmarked) [5-[(3-cyanophenyl)methyl]-10-pentyl-5H,6H,7H,8H,9H,10H-cyclohepta[b]indole-4-carboxylic acid], for which the inhibition at 1 µM worked out at 44.3% and the inhibition at 10 µM is 77%.

On to `CCCC1CCCCc2c1c1cccc(C(=O)O)c1n2Cc1cccc(C#N)c1` (centres unmarked) [5-[(3-cyanophenyl)methyl]-10-propyl-5H,6H,7H,8H,9H,10H-cyclohepta[b]indole-4-carboxylic acid], for which the inhibition at 1 µM stood at 73.3% and the inhibition at 10 µM came to 97.5%.

Consider `CCCCCCC1CCCc2c(n(Cc3cccc(F)c3)c3c(C(=O)O)cccc23)C1` (centres unmarked) [5-[(3-fluorophenyl)methyl]-7-hexyl-5H,6H,7H,8H,9H,10H-cyclohepta[b]indole-4-carboxylic acid], for which the inhibition at 1 µM came out at 93.6% and the inhibition at 10 µM came to 92.9%.

Take `CCCCCCC1CCCc2c(n(Cc3ccc(C(N)=O)cc3)c3c(C(=O)O)cccc23)C1` (centres unmarked) [5-[(4-carbamoylphenyl)methyl]-7-hexyl-5H,6H,7H,8H,9H,10H-cyclohepta[b]indole-4-carboxylic acid]: the inhibition at 1 µM came out at 77.7% and the inhibition at 10 µM worked out at 83.8%.

On to `CCCCCCC1CCCc2c(n(Cc3ccc(C#N)cc3)c3c(C(=O)O)cccc23)C1` (centres unmarked) [5-[(4-cyanophenyl)methyl]-7-hexyl-5H,6H,7H,8H,9H,10H-cyclohepta[b]indole-4-carboxylic acid], for which the inhibition at 1 µM amounted to 81.3% and the inhibition at 10 µM is 84.7%.

Consider `CCCCCCC1CCCc2c(n(Cc3ccc(F)cc3)c3c(C(=O)O)cccc23)C1` (centres unmarked) [5-[(4-fluorophenyl)methyl]-7-hexyl-5H,6H,7H,8H,9H,10H-cyclohepta[b]indole-4-carboxylic acid], for which the inhibition at 1 µM worked out at 74.4% and the inhibition at 10 µM stood at 77.6%.

In the case of `CCCCCCC1CCCc2c(n(Cc3ccc(C#N)o3)c3c(C(=O)O)cccc23)C1` (centres unmarked) [5-[(5-cyanofuran-2-yl)methyl]-7-hexyl-5H,6H,7H,8H,9H,10H-cyclohepta[b]indole-4-carboxylic acid], the inhibition at 1 µM amounted to 81.3% and the inhibition at 10 µM turned out to be 90%.
